SMILES strings stand for the structures. Bounds are passed on as bounds.

For data set [1], the system named is Vaccinia virus. The data set can be described thus: Direct virocidal effect on Vaccinia virus, 24 h exposure, BS-C-1 plaque assay (Example 6, FIG. 5). The data set is classed as cell-based. The note with it: 50 μM, 24 h at 37° C. How it is done: Direct virocidal effect of various agents on Vaccinia virus (24 h exposure) Triplicates of Vaccinia virus in a 96-well plate were incubated with agents at 50 μM final concentration for 24 h at 37° C. After incubation, virus was diluted 1000-fold and quantified in a standard 24-well BS-C-1 plaque assay.
The various agents used were as follows: BP: Benzoyl peroxide, D: Dicoumarol, DNCB: Dinitrochlorobenzene, DNFB: Dinitrofluorobenzene, K1: Vitamin K1, K2: Vitamin K2, Menadione (M is fresh, M* is Menadione kept at RT for 2 months), MBS: Menadione bisulfite and Control.

In data set [2] the test system is Vaccinia virus. The format is cell-based.
For data set [3], the system named is HaCaT cells. The data set can be described thus: Toxicity on cells, MTT assay (Example 4, FIG. 3). The data set is classed as cell-based, human. The note with it: 1 day exposure. How it is done: Toxicity of test compounds on uninfected cell monolayers was measured using the standard tetrazolium dye MTT.
Test of various agents (BP: Benzoyl peroxide), at the indicated concentrations on triplicates of HaCaT cells in 96-well plates (FIG. 3).
Toxicity on cells (left side of panel): Cell monolayers were exposed to agents as indicated, and 1 day later, cellular viability was analysed by a standard MTT assay (control OD was between 1.15 and 1.3).
Background: Tetrazolium assays rely on reduction of a dye to a coloured formazan, in cell work by metabolically active cells.

The test system of the next data set is Vaccinia virus WR. The format is cell-based.
The next data set deals with Molluscum contagiosum. The data set can be described thus: Treatment of a patient with Molluscum contagiosum lesions (topical painting). The data set is classed as in vivo, human. Particulars: 50 mM in DMSO painted on lesions, one to two times per day for 5 days, after 4 weeks. Here is the method:
A patient, previously treated for Molluscum contagiosum infection with curettage, had two recurrences of Molluscum contagiosum. In each instance, a number of early lesions, which where in the elbow region or the lower jaw region respectively, were treated one to two times per day for 5 consecutive days. Treatment consisted of painting the lesions with a cotton stick, applying a solution of 50 mM Menadione dissolved in DMSO to the tip of the lesion. […] Concentrations of Menadione, its analogues and additional compounds used in this invention are as indicated below: […]

Data set [4] has as its system HaCaT cells. Particulars: 25 μM, 1 day, MTT.

`O=C(OOC(=O)c1ccccc1)c1ccccc1` [BP, Benzoyl peroxide]: the “reduction of virus infectivity (direct virocidal effect)” value in the data set with Vaccinia virus [1] is 43%. Besides, the virus replication entry with Vaccinia virus [2] is “inhibition of virus replication”. Also, the cell toxicity result in the data set on HaCaT cells [3] was “dose-dependent cell toxicity”.
Turning to `O=c1oc2ccccc2c(O)c1Cc1c(O)c2ccccc2oc1=O` [Dicoumarol], in the data set with Vaccinia virus [2], the virus replication result was “inhibition of virus replication”. For the same compound, the cell toxicity result in the data set with HaCaT cells [3] is “dose-dependent cell toxicity”.
The corresponding values for `Oc1ccc(O)cc1` [Hydroquinone] are “no effect” and “no effect”.
As to `CC1(S(=O)(=O)[O-])CC(=O)c2ccccc2C1=O.[Na+]` (centres unmarked) [Menadione bisulfite], the virus progeny result with Vaccinia virus WR is reported as “reduced virus progeny in a dose-dependend manner”. The “reduction of virus infectivity (direct virocidal effect)” value with Vaccinia virus [1] is reported as 95%. The virus replication result in the data set on Vaccinia virus [2] was “inhibition of virus replication”. Further, the cell toxicity result with HaCaT cells [3] is on record as “dose-dependent cell toxicity”.
On to `CC1=CC(=O)c2ccccc2C1=O` [Menadione, 2-methyl-1,4-naphthoquinone], for which, in the data set on Vaccinia virus WR, the virus progeny entry is recorded as “reduced virus progeny in a dose-dependend manner”. Also, the “state of the skin after treatment of Molluscum contagiosum lesions” value in the data set with Molluscum contagiosum is “normal and without scar or discoloration”. The “effect on cell viability” value in the data set with HaCaT cells [4] was < 30%.

The values above are taken from US20130224286A1, “METHODS AND COMPOSITIONS FOR TREATING POX VIRUS INFECTIONS” (priority 2010, published 2013).
